Values quoted from earlier work as cited in US20080004279A1, “Use of C-Kit Inhibitors for Treating Plasmodium Related Diseases” (priority 2004, published 2008).

What was measured:
[1] = test system: GPI-induced NO production in macrophages and vascular endothelial cells

CCN(CC)CCCC(C)Nc1ccnc2cc(Cl)ccc12 (stereo not drawn) [Chloroquine]
mode of inhibition of PTK with respect to ATP (membrane bound PTK; kinetic studies): noncompetitive | mode of inhibition of PTK with respect to peptide substrate (membrane bound PTK; kinetic studies): competitive inhibitor | IC50 (membrane bound PTK; read-out: inhibition of membrane bound PTK activity, IC50, dose dependent, P. falciparum): 45 µM

O=c1c(-c2ccc(O)cc2)coc2cc(O)cc(O)c12 [genistein]
release of NO by parasite extracts and by GPI ([1]; GPI alone or in combination with IFN-gamma): inhibited

S=C(S)N1CCCC1 [pyrrolidine dithiocarbamate]
GPI-induced NO production / release [1]: blocked

calphostin C
GPI-induced NO production / release [1]: blocked
